Twelve compounds from PubChem BioAssay (NCI) can be followed below.

The structures appear in SMILES notation.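 Where inhibition never reached the appropriate level, the endpoint shown equals the highest concentration tested. Otherwise, values were interpolated linearly from a five-concentration, 48-hour dose response in 96-well plates. TGI: total growth inhibition.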

Test in all cases: NCI tumour cell line growth inhibition, 48 h
Assay [1] has as its system MALME-3M melanoma.
The test system of assay [2] is SK-MEL-2 melanoma.
The test system of assay [3] is NCI-H522 lung.
Assay [4] deals with NCI-H23 lung.
In assay [5] the test system is SNB-75 CNS.
Assay [6] concerns HL-60(TB) leukemia.
In assay [7] the test system is SF-539 CNS.
The test system of assay [8] is SK-OV-3 ovarian.
Assay [9] deals with LOX IMVI melanoma.
In assay [10] the test system is NCI-H460 lung.
Assay [11] deals with ACHN renal.
In assay [12] the test system is MDA-MB-435.
Assay [13] has as its system MDA-MB-231 breast.
Assay [14] concerns BT-549 breast.

As for `O=C(CCN1CCOCC1)C(=Cc1ccccc1)C(=O)CCN1CCOCC1`, the TGI is 4.64 µM in assay [1]; 22.6 µM in [2]; 2.85 µM in assay [3]; 7.92 µM in assay [4]; 29.7 µM in assay [5]; 3.52 µM in assay [6]. Further, the TGI in assay [7] stood at 10 µM; in assay [8], 31.1 µM; in assay [9] it was 4.29 µM; in assay [10], 28.3 µM.
For `CC(C)C(NCc1c(O)ccc2c(-c3ccccc3)cc(=O)oc12)C(=O)O` (stereo unspecified), the TGI in assay [11], in assay [1], in assay [12], in [2], in assay [3] and in assay [4] was more than 100 µM in each case. The TGI in assay [5], in assay [6], in assay [7], in assay [8], in assay [9] and in assay [10] was more than 100 µM each time. The same compound displayed a TGI in [13] of more than 100 µM.
For the compound `CC(C)(C)S(=O)OC12CC3CC(CC(C3)C1)C2` (stereo unspecified), the TGI in assay [11], in assay [1], in assay [2], in assay [3], in assay [4] and in [5] was more than 100 µM each time. Besides, the TGI in assay [7], in assay [9] and in assay [10] was more than 100 µM throughout.
Regarding `COc1ccc2c(c1)CCC(OS(=O)(=O)CC13CCC(CC1=O)C3(C)C)C2=O` (stereo unspecified), the TGI in assay [11] is more than 100 µM; in assay [1], more than 100 µM; in assay [2], 55.8 µM; in assay [3], 53.7 µM; in assay [4], 36.1 µM; in [5] it was more than 100 µM. Besides, the TGI is 47.5 µM in assay [6], 41.6 µM in assay [7], 32.1 µM in assay [9] and 38.6 µM in assay [10].
With `Cn1c2ccccc2c(=O)c2[nH]c3ccccc3c21`, the TGI in assay [11], in assay [1], in [12], in assay [2], in assay [3] and in [4] was more than 100 µM throughout. The TGI in [5] is 99.8 µM; in [7], more than 100 µM; in [8], more than 100 µM; in [9] it was more than 100 µM; in assay [10] it was more than 100 µM; in assay [13] it was more than 100 µM.
On to `C/C(=N\NC(=S)NCc1ccccc1)c1nc2ncccc2[nH]1`, for which the TGI was found to be 52.9 µM in [11]; 34.6 µM in assay [1]; 33.5 µM in [12]; 36 µM in [2]; 32 µM in assay [3]; 40.8 µM in assay [4]. In addition, the TGI in [5] was 49 µM; in assay [6], more than 100 µM; in assay [7], 20.8 µM; in assay [8], more than 100 µM; in assay [9], 21.4 µM; in assay [10] it was 27.6 µM. The compound further returned a TGI in assay [13] of 90.2 µM.
For `C=CCN1CN(c2ccccc2)C2(CCN(CCCC3(c4ccc(F)cc4)OCCO3)CC2)C1=O`, the TGI in assay [11] amounted to 48.3 µM; in assay [1], 30.6 µM; in [3], 36.7 µM; in [4], 30 µM; in [5] it was 32.8 µM; in [6], 29 µM. Further, the TGI in [7] was 23.1 µM; in assay [8] it was 43.3 µM; in assay [9], 34.5 µM; in assay [13], 33.7 µM.
Turning to `c1ccc2cc3c(cc2c1)nc1ccccn13`, the TGI in assay [11], in assay [1], in assay [12], in [4], in [5] and in assay [6] was more than 100 µM each time. Further, the TGI in assay [7], in assay [8] and in assay [14] was more than 100 µM throughout.
As to `Cc1cc(N(CCC#N)CCC#N)ccc1C=Nc1ccc(C(=O)NN2C(=O)/C(=C/c3ccc(N(CCC#N)CCC#N)cc3)N=C2c2cc([N+](=O)[O-])ccc2Cl)cc1`, the TGI in assay [11], in assay [1], in assay [2], in assay [4], in assay [5] and in [6] was more than 100 µM each time. In addition, the TGI in assay [7], in [8], in assay [9] and in assay [10] was more than 100 µM in each case.
With `Cc1ccc(NC(=O)C(=O)Cc2cc[n+]([O-])cc2)cc1`, the TGI in [11], in [1], in assay [2], in assay [3], in [4] and in assay [5] was more than 100 µM each time. Besides, the TGI in assay [6], in assay [7], in assay [8], in [9] and in [10] was more than 100 µM throughout.
Regarding `CN(C)Cc1cc(C(C)(C)C)cc(C2CCCCC2)c1O`, the TGI in assay [11] came to 28.9 µM; in assay [1], 17.9 µM; in [12] it was 36.6 µM; in assay [2], 35 µM; in [3], 37.2 µM; in assay [4] it was 72.2 µM. In addition, the TGI in assay [5] was found to be 22.1 µM; in assay [6] it was 33.9 µM; in [7] it was 22.8 µM; in assay [8] it was 28.7 µM; in assay [9], 28.5 µM; in assay [10] it was 38.3 µM. The same compound yielded a TGI in assay [13] of 26.7 µM.
As to `Cc1cccc2c(=O)c3cccc([C@@H](C)C(=O)O)c3oc12`, the TGI in assay [11], in assay [12], in assay [2], in [3], in assay [4] and in assay [6] was more than 100 µM in each case. Also, the TGI in assay [7], in [8], in [9], in [10] and in [13] was more than 100 µM each time.
